Test [1] has as its system MMP1 expression by activated synovial fibroblasts (RASFs). Briefly: MMP assay: MMP1 expression by RASFs triggered with TNF-α (MMP1 ELISA). The conditions noted are these: Fibroblast, 48 h, TNF-α trigger 10 ng/mL, semi-quantitative score, read-out: REDUCTION MMP1/TNFa. The class given is cell-based. On the procedure: A 384-well format ELISA for measurement of MMP1 is developed. Various primary antibodies are tested, as well as various ELISA protocols. The following protocol is developed and validated to measure MMP1 levels in SF supernatant in 384 well plates: white Lumitrac 600 384 well plates (Greiner) are coated with 2 μg/mL anti-MMP1 antibody MAB1346 (Chemicon). The antibody is diluted in buffer 40 (1.21 g Tris base (Sigma), 0.58 g NaCl (Calbiochem) and 5 mL 10% NaN3 (Sigma) in 1 L milliQ water and adjusted to pH 8.5). After overnight incubation at 4° C., plates are washed with PBS (80 g NaCl, 2 g KCl (Sigma), 11.5 g Na2HPO4.7H2O and 2 g KH2PO4 in 10 L milliQ; pH 7.4) and blocked with 100 μL/well Casein buffer (2% Casein (VWR International) in PBS). Next day, casein buffer is removed from ELISA plates and replaced by 50 μL/well EC buffer (4 g casein, 2.13 g Na2HPO4 (Sigma), 2 g bovine albumin (Sigma), 0.69 g NaH2PO4.H2O (Sigma), 0.5 g CHAPS (Roche), 23.3 g NaCl, 4 mL 0.5 M EDTA pH 8 (Invitrogen), 5 mL 10% NaN3 in 1 L milliQ and adjusted to pH 7.0). 0.25 mM DTT (Sigma) is added to the thawed sample plates. After removal of the EC buffer, 20 μL of sample is transferred to the ELISA plates. After overnight incubation at 4° C. plates are washed twice with PBS and once with PBST (PBS with 0.05% Tween-20 (Sigma)) and incubated with 35 μL/well biotinylated anti-MMP1 antibody solution (R&D). This secondary antibody is diluted in buffer C (0.82 g NaH2PO4.H2O, 4.82 g Na2HPO4, 46.6 g NaCl, 20 g bovine albumin and 4 mL 0.5M EDTA pH 8 in 2 L milliQ and adjusted to pH 7.0) at a concentration of 5 μg/mL. After 2 h of incubation at RT, plates are washed as described above and incubated with 50 μL/well streptavidin-HRP conjugate (Biosource). Streptavidin-HRP conjugate is diluted in buffer C at a concentration of 0.25 μg/mL. After 45 min, plates are washed as described above and incubated for 5 min with 50 μL/well BM Chem ELISA Substrate (Roche). Readout is performed on the Luminoscan Ascent Luminometer (Labsystems) with an integration time of 200 msec or with an Envision reader (Perkin Elmer).
SFs were acquired at passage 1 from a commercial supplier (Cell applications, Inc.). SFs are cultured in DMEM supplemented with 10% heat-inactivated FBS, 1× penicillin/streptomycin (Invitrogen) at 37° C., 10% CO2 until passage 6. Aliquots of the cells are frozen and cryopreserved in liquid nitrogen. Starting from a cryopreserved aliquot, cells are further expanded by sub-culturing cells at 1/3 ratio every week. Cells between passage 10 and 12 are routinely used in compound testing according to following protocol.
Starting from the compound master stocks (all at 10 mM concentration in 100% DMSO) a 3-fold serial dilution is made in 96-well plates in 100% DMSO. Then, plates are further diluted 45-fold in M199 medium supplemented with 1% heat-inactivated FBS to obtain a intermediate work stock.
At day 1, RASFs are seeded in 96 well plates (flat bottom, tissue culture treated, Greiner) at a density of 3000 cells/well in complete synovial growth medium (Cell Applications). Day 5, the medium is completely removed from the cells, and replaced by 81 μL of M199 medium supplemented with 1% heat-inactivated FBS followed by addition of 10 μL compound out of the intermediate work stock. After an incubation period of 90 minutes, which allows the compounds to equilibrate and enter the cells, cells are stimulated with either TNF-α or ‘complex trigger’. TNF-α trigger is added in a volume of […] to obtain final concentration of 10 ng/mL. For that, TNF-α stock (PeproTech) at 10 μg/mL was diluted to 100 ng/mL TNF-a in M199 medium supplemented with 1% FBS. ‘Complex trigger’ mix is added in a volume of 20 μL to obtain a final concentration of 12.5%. For that, ‘complex trigger’ mix, is diluted to 80% with M199 medium supplemented with 1% FBS. […]

In test [2] the target is T1, TAK1-TAB1 fusion protein (Homo sapiens, UniProt O43318).
T1 construct: purchased Upstate 14-600
T1 sequence (O43318 with tags, fused parts or gaps limits assumed): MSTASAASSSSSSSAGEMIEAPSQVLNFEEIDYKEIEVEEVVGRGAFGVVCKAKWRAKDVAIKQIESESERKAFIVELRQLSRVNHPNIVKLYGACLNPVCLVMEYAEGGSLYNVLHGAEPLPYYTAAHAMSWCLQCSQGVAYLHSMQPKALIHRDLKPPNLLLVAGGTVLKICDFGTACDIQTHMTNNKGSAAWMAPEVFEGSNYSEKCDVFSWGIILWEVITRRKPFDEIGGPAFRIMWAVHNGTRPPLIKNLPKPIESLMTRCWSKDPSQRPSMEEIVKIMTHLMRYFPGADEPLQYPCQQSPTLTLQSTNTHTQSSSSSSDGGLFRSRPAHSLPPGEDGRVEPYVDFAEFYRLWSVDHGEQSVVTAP
Put plainly: In vitro TAK1 kinase assay. The class given is biochemical. Particulars: casein substrate, [33P]-γ-ATP, 90 minutes at 30° C., semi-quantitative score, read-out: POTENCY TAK1 (MAP3K7). On the procedure:
For assessing TAK1 inhibition, active TAK1-TAB1 fusion protein was used from Upstate (Cat. No, 14-600). Kinase reactions are set up in 96-well polypropylene plates in 25 μL containing 0.5 mU TAK1-TAB1 fusion protein, 5mM ATP, 0.01 μCi/μL [^33P]-γ-ATP, 0.1 mg/mL casein substrate in 1× reaction buffer containing 10 mM MOPS pH 7.0, 1 mM EDTA.
Starting from the compound master stocks (all at 10 mM concentration in 100% DMSO) a 3-fold serial dilution is made in 96-well plates in 100% DMSO. Plates are further diluted […] in H2O containing 3.5% DMSO, to obtain an intermediate work stock with compounds at 5× the final assay concentration in 5% DMSO.
5 μL of the intermediate stock is transferred into V-bottom 96 well polypropylene plates and 11 μL of Enzyme mix is added. Enzyme mix is made by combining 5 μL 5× reaction buffer ([…] pH 7.0, 1 mM EDTA), 5 μL casein (Sigma) diluted in H20 to 0.5 mg/mL and 1 μL of TAK1-TAB1 fusion protein that was prediluted to 0.5 mU/μL in 1× enzyme dilution buffer (20 mM MOPS pH 7.0, 0.1 mM EDTA, 0.01% Brij-35, 5% glycerol, 1 mM DTT, 1 mg/ml BSA).
The reactions are started by the addition of 9 μL of mixture containing ATP (20.83 uM) and [^33P]-γ-ATP (0.028 μCi/μL).
The assay is stopped 90 minutes after incubation at 30° C. by the addition of 25 μL phosphoric acid (150 mM). The label incorporated into the casein substrate is separated from labeled unincorporated ATP by filtration onto 96-well filter plates using a harvester device. After 6 washes with 75 mM phosphoric acid, the bottom of the filter plates are sealed, and incorporated label is quantified after addition of 40 μL scintillation fluid using TopCount.

Drawing on patent US7977352B2, “Triazolopyridine compounds useful for the treatment of degenerative and inflammatory diseases” (Galapagos NV, priority 2006, dated 2011), this text covers IC50 for 13 molecules.

In the case of `CCCN1CCN(c2ccc(Nc3ccc(-c4cc[nH]c(=O)c4)n4ncnc34)cc2)CC1` [Example 20, 4-(8-{[4-(4-propylpiperazin-1-yl)phenyl]amino}[1,2,4]triazolo[1,5-a]pyridin-5-yl)pyridin-2(1H)-one], the IC50 in test [1] was 1 to 5 µM; in test [2], less than 0.5 µM.
Take `CCC(CC)N1CCN(c2ccc(Nc3ccc(-c4ccnc(OC)c4)n4ncnc34)cc2)CC1` [Example 28, N-{4-[4-(1-ethylpropyl)piperazin-1-yl]phenyl}-5-(2-methoxypyridin-4-yl)[1,2,4]triazolo[1,5-a]pyridin-8-amine]: the IC50 in test [1] is 1 to 5 µM; in test [2] it was more than 10 µM.
In the case of `CC(C)N1CCN(c2ccc(Nc3ccc(-c4ccc5[nH]ccc5c4)n4ncnc34)cc2)CC1` [Example 51, 5-(1H-indol-5-yl)-N-[4-(4-isopropylpiperazin-1-yl)phenyl][1,2,4]triazolo[1,5-a]pyridin-8-amine], the IC50 in test [1] and in test [2] was more than 10 µM throughout.
As for `O=c1cc(-c2ccc(Nc3ccc(N4CCN(C5CCCCC5)CC4)cc3)c3ncnn23)cc[nH]1` [Example 25, 4-(8-{[4-(4-cyclohexylpiperazin-1-yl)phenyl]amino}[1,2,4]triazolo[1,5-a]pyridin-5-yl)pyridin-2(1H)-one], the results for the IC50 in test [1] and in test [2] were 1 to 5 µM and less than 0.5 µM, respectively.
The corresponding values for `O=c1cc(-c2ccc(Nc3ccc(N4CCNCC4)cc3)c3ncnn23)cc[nH]1` [Example 33, 4-{8-[(4-piperazin-1-ylphenyl)amino][1,2,4]triazolo[1,5-a]pyridin-5-yl}pyridin-2(1H)-one] are 1 to 5 µM and less than 0.5 µM.
For `C[C@@H]1CN(c2ccc(Nc3ccc(-c4cc[nH]c(=O)c4)n4ncnc34)cc2F)C[C@H](C)N1C` [Example 9, 4-[8-({3-fluoro-4-[(3R,5S)-3,4,5-trimethylpiperazin-1-yl]phenyl}amino)[1,2,4]triazolo[1,5-a]pyridin-5-yl]pyridin-2(1H)-one] the same measures were 1 to 5 µM and 0.501 to 1 µM.
The corresponding values for `C[C@@H]1CN(C)[C@@H](C)CN1c1ccc(Nc2ccc(-c3cc[nH]c(=O)c3)n3ncnc23)cc1F` (relative stereo) [Example 11, rel-4-[8-({3-fluoro-4-[(2R,5S)-2,4,5-trimethylpiperazin-1-yl]phenyl}amino)[1,2,4]triazolo[1,5-a]pyridin-5-yl]pyridin-2(1H)-one] are 1 to 5 µM and less than 0.5 µM.
Consider `COc1ncc(-c2ccc(Nc3ccc(N4CCOCC4)cc3)c3ncnn23)c(OC)n1` [Example 54, 5-(2,4-dimethoxypyrimidin-5-yl)-N-(4-morpholin-4-ylphenyl)[1,2,4]triazolo[1,5-a]pyridin-8-amine], for which the IC50 in test [1] and in test [2] was more than 10 µM throughout.
`NC(=O)c1cccc(-c2ccc(Nc3ccc(N4CCOCC4)cc3)c3ncnn23)c1` [Example 43, 3-{8-[(4-morpholin-4-ylphenyl)amino][1,2,4]triazolo[1,5-a]pyridin-5-yl}benzamide]: the IC50 in test [1] and in test [2] was more than 10 µM throughout.
Regarding `COc1cc(-c2ccc(Nc3ccc(N4CCN(C5CCCCC5)CC4)cc3)c3ncnn23)ccn1` [Example 32, N-[4-(4-cyclohexylpiperazin-1-yl)phenyl]-5-(2-methoxypyridin-4-yl)[1,2,4]triazolo[1,5-a]pyridin-8-amine], the values for the IC50 in test [1] and in test [2] were 5 to 10 µM and more than 10 µM, respectively.
Take `CCN1CCN(c2ccc(Nc3ccc(-c4ccnc(OC)c4)n4ncnc34)cc2)CC1` [Example 26, N-[4-(4-ethylpiperazin-1-yl)phenyl]-5-(2-methoxypyridin-4-yl)[1,2,4]triazolo[1,5-a]pyridin-8-amine]: the IC50 in test [1] is 1 to 5 µM; in test [2], more than 10 µM.
The corresponding values for `COc1cc(-c2ccc(Nc3ccc(N4CCN(C5CC5)CC4)cc3)c3ncnn23)ccn1` [Example 30, N-[4-(4-cyclopropylpiperazin-1-yl)phenyl]-5-(2-methoxypyridin-4-yl)[1,2,4]triazolo[1,5-a]pyridin-8-amine] are 1 to 5 µM and more than 10 µM.
The corresponding values for `NC(=O)c1ccc(-c2ccc(Nc3ccc(N4CCN(C5CC5)CC4)cc3)c3ncnn23)cc1` [Example 18, 4-(8-{[4-(4-cyclopropylpiperazin-1-yl)phenyl]amino}[1,2,4]triazolo[1,5-a]pyridin-5-yl)benzamide] are 1 to 5 µM and 1 to 5 µM.
